2 molecules from US10660333B2, “Substituted 2-heterocyclylimidazolylcarboxamides as pesticides” (BAYER CROPSCIENCE AKTIENGESELLSCHAFT, priority 2016, dated 2020) can be followed below.

Each structure is given as a SMILES string. Like-named read-outs stand apart in the source and are kept apart here.

Series [1] in a line: log P by HPLC on reversed-phase (C18) columns, OECD Guideline 117. Format: physicochemical. The note with it: for chromatographic logP: reversed-phase (C18) HPLC column.
Series [2] has as its system Myzus persicae. Briefly: Myzus persicae - spray test. Format: in vivo. The essentials:
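Chinese cabbage leaf discs infested with all stages of green peach aphid sprayed with active ingredient formulated in emulsifier-containing water (1000 ppm emulsifier). Efficacy scored after 5 days as % aphids killed (100% = all, 0% = none).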

The subject of series [3] is Myzus persicae. Briefly: Myzus persicae - oral test. Format: in vivo. An outline of the steps:
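The active ingredient, dissolved in solvent and diluted with water, was mixed with IPL41 insect medium (33%+15% sugar) and sealed under parafilm. A mixed population of green peach aphids fed through the parafilm. Efficacy in % was scored after 5 days, where 100% means all aphids were killed.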

Another series concerns Tetranychus urticae. Nature of the series: Tetranychus urticae - spray test, OP-resistant. Type of series: in vivo. The note with it: 500 g/ha, bean leaf discs, after 6 days. The protocol: Tetranychus urticae—Spray Test, OP-Resistant
To produce a suitable active ingredient formulation, 1 part by weight of active ingredient is dissolved with the specified parts by weight of solvent and made up to the desired concentration with water containing an emulsifier concentration of 1000 ppm. To produce further test concentrations, the formulation is diluted with emulsifier-containing water.
Discs of bean leaves (Phaseolus vulgaris) infested with all stages of the greenhouse red spider mite (Tetranychus urticae) are sprayed with an active ingredient formulation of the desired concentration.
After 6 days, the efficacy in % is determined. 100% means that all the spider mites have been killed; 0% means that no spider mites have been killed.

In a further series the test system is Meloidogyne incognita. Briefly: Meloidogyne incognita - test. Format: in vivo. Particulars: 20 ppm, lettuce, after 14 days. The procedure: Meloidogyne incognita—Test
To produce a suitable active ingredient formulation, 1 part by weight of active ingredient is mixed with the stated amount of solvent and the concentrate is diluted to the desired concentration with water.
Vessels are filled with sand, active ingredient solution, an egg/larvae suspension of the southern root-knot nematode (Meloidogyne incognita) and lettuce seeds. The lettuce seeds germinate and the plants develop. The galls develop on the roots.
After 14 days, the nematicidal efficacy in % is determined by the formation of galls. 100% means that no galls were found; 0% means that the number of galls on the treated plants corresponds to the untreated control.

Turning to `CN(C(=O)c1cnc(C2CC(c3ccc([N+](=O)[O-])cc3)=NO2)n1C)c1cccnc1` (stereo not shown) [Example I-1-24], the “logP[a]” value in series [1] (pH 2.7) is 1.64. Besides, in series [1] (pH 7.8), the “logP[n]” value is on record as 1.84. Also, the “efficacy (aphids killed)” value is given as 90% in the series with Myzus persicae [2] (500 g/ha, Chinese cabbage leaf discs, after 5 days) and 100% with Myzus persicae [3] (4 ppm, oral, after 5 days). In the series on Tetranychus urticae, the “efficacy (spider mites killed)” value was 100%.
`CN(C(=O)c1cnc(C2=NOCCO2)n1C)c1cccnc1` [Example I-1-29, 2-(5,6-Dihydro-1,4,2-dioxazin-3-yl)-N,1-dimethyl-N-(pyridin-3-yl)-1H-imidazole-5-carboxamide]: the chromatographic logP in series [1] (HPLC RP C18, acidic range pH 2.7, 0.1% formic acid/acetonitrile, read-out: logP[a]) came to 0.45; in series [1] (HPLC RP C18, neutral range pH 7.8, ammonium hydrogencarbonate/acetonitrile, read-out: logP[n]), 0.76. Further, the “nematicidal efficacy (formation of galls)” value with Meloidogyne incognita was 100%. Moreover, the pest or weed control at 500 g/ha in the series on Myzus persicae [2] (Myzus persicae, in Brassica rapa, foliar, 120 h, read-out: efficacy (aphids killed)) came out at 100%. In addition, the pest or weed control at 4 ppm in the series on Myzus persicae [3] (Myzus persicae, po, 120 h, read-out: efficacy (aphids killed)) worked out at 100%.
